The values that follow come from patent publication US20050095240A1, “NaCT as a target for lifespan expansion and weight reduction” (Medical College of Georgia Research, priority 2002, published 2005).

Usually Ki stands for a dissociation constant, usually derived from enzyme kinetics or from competition with a known ligand.

The structures appear in SMILES notation.

Assay [1] concerns the target drIndy (Drosophila melanogaster, UniProt Q9VVT2). The assay is described as follows: cell-based.
The target in assay [2] is T1, mouse NaCT (Mus musculus, UniProt Q67BT3).
T1 sequence (Q67BT3 1-572): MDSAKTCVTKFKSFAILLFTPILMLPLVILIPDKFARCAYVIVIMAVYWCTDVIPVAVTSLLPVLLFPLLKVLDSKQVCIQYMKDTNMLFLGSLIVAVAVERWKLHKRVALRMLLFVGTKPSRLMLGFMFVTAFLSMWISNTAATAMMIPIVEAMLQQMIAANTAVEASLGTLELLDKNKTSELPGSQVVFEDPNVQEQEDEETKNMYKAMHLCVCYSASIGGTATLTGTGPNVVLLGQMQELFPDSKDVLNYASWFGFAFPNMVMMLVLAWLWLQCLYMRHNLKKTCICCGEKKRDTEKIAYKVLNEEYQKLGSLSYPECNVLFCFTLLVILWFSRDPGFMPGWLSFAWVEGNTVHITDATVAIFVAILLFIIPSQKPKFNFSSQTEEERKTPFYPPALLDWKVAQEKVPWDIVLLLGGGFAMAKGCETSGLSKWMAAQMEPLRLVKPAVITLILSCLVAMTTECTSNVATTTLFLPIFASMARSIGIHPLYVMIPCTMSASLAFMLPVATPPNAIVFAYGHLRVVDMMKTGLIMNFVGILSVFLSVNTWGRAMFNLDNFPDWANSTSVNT
Kind of assay: Mouse NaCT in X. laevis oocytes, two-microelectrode voltage clamp. The class given is cell-based. As to conditions: 0.5 mM citrate; three oocytes; −50 mV. How it is done: Functional expression of mouse and rat NaCTs in Xenopus laevis oocytes. Capped cRNA from the cloned mouse NaCT cDNA was synthesized using the mMESSAGE mMACHINE kit (Ambion Inc., Austin, Tex., USA). In some experiments, rat NaCT of Example 2 was used for functional expression. […] On the following day, oocytes were injected with 50 ng cRNA. Water-injected oocytes served as controls. The oocytes were used for electrophysiological studies 4-6 days after cRNA injection. Electrophysiological studies were performed by the two-microelectrode voltage-clamp method (Hatanaka et al., J. Clin. Invest. (2001);107: 1035-1043 and Nakanishi et al., J. Physiol. (2001);532: 297-304). […] The membrane potential was clamped at −50 mV. […] The oocytes were perifused with 50 μM [^14C]-citrate or 50 μM succinate (unlabeled plus radiolabeled succinate) and inward currents were monitored over a period of 10 min. […] The area within the curve describing the relationship between the time and inward current was integrated to calculate the charge transferred into the oocyte during incubation with citrate or succinate. The values for substrate transport and charge transfer were used to determine the charge-to-substrate ratio.

Sequence of drIndy (Q9VVT2 19-590): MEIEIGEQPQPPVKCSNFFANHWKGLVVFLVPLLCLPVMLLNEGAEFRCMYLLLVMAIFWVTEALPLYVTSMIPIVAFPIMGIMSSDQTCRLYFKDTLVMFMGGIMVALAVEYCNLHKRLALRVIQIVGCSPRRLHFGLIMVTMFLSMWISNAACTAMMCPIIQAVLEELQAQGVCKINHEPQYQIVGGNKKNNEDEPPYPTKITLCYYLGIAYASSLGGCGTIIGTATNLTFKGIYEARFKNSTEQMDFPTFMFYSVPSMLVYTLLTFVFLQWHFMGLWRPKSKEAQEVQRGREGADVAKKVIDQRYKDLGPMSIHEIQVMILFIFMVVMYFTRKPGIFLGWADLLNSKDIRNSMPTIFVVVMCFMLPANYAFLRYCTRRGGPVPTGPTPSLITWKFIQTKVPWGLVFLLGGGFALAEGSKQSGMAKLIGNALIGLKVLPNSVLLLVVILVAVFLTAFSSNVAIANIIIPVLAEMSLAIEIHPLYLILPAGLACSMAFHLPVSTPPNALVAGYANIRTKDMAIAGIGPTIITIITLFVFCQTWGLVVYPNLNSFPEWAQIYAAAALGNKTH

Regarding `O=C(O)CC(O)(CC(=O)O)C(=O)O` [Citrate], the inhibition constant (Ki) in assay [1] turned out to be 105 ± 35 µM. In assay [2], this compound yielded a Citrate-induced inward current of 30±7 nA.
